{"source": "patent US11479616B2", "about": "“Method for preparing okra polygalacturonic acid having uric acid-lowering effect” (Institute of Biological and Medical Engineering, Guangdong …, priority 2020, dated 2022)", "key": {"[1]": {"system": "mice with high uric acid levels", "test": "Evaluation of uric acid-lowering effect in high uric acid mouse models (blood uric acid, blood creatinine, serum urea nitrogen)", "format": "in vivo, C57BL/6 mice", "settings": "100 mg/kg of body weight, mean ± SD, n = 6", "method": "(§1) C57BL/6 mice (16.7-20.4 g, 6-7 weeks old) were provided by the Guangdong Medical Laboratory Animal Center, and quarantined for 4 days before the trial. During the trial, the mice were kept in a house with stable conditions with a 12 h:12 h light-dark cycle and given ad libitum access to food and water.\nThe mice were divided according to their weights into a negative control group (normal mice), a model control group (mice with high uric acid levels), a positive control group (mice with high uric acid levels, administrated with allopurinol tablets), a low-dosage group (mice with high uric acid levels, […] acid), and a high-dosage group (mice with high uric acid levels, […]), six mice in each group. The mice of each group were treated with a corresponding solution through intragastric administration with a dosage of 20 mL per kg of body weight, wherein the mice of the positive control group were treated with a 5 mg/mL allopurinol solution, the mice of the negative control group and the model control group were treated with purified water, one administration per day. […] The mice were treated for 30 successive days.\nMethod for preparing OP1 samples: 45 mg of the okra polygalacturonic acid was weighed out and mixed well with a certain volume of purified water. The mixture was further added with purified water to a final volume of 4.5 mL to give a 10 mg/mL high-dosage solution, which shall be shaken well before used. 0.9 mL of the high-dosage solution was added with purified water to a final volume of 3.6 mL and mixed well to give a 2.5 mg/mL low-dosage solution, which shall be shaken well before used. […]\n(§2) 3 hours after the last administration, the mice were anaesthetized using isoflurane, and blood was collected from each mouse by removing eyeballs. […] Blood uric acid levels, blood creatinine levels, and serum urea nitrogen levels were measured by an automatic biochemical analyzer, and XOD activities were determined using an ELISA kit."}, "XOD": {"system": "XOD", "test": "Serum XOD activity of high uric acid mouse models, determined using an ELISA kit", "format": "in vivo, C57BL/6 mice", "settings": "high uric acid mice, 100 mg/kg of body weight, intragastric, 30 days, mean ± SD, n = 6", "method": "as §1\nThe mice were divided according to their weights into a negative control group (normal mice), a model control group (mice with high uric acid levels), a positive control group (mice with high uric acid levels, administrated with allopurinol tablets), a low-dosage group (mice with high uric acid levels, administrated with 50 mg/kg of the okra polygalacturonic acid), and a high-dosage group (mice with high uric acid levels, administrated with 200 mg/kg of the okra polygalacturonic acid), six mice in each group. […]\nas §2"}}, "data": [{"smiles": "Oc1ncnc2[nH]ncc12", "note": "[Positive control, allopurinol]", "values": [{"measurement": "blood creatinine", "setting": "[1]; intragastric, 30 days", "result": "30.2 ± 5.7", "unit": "µmol/L"}, {"measurement": "serum urea nitrogen", "setting": "[1]; intragastric, 30 days", "result": "23.3 ± 4.1", "unit": "mmol/L"}, {"measurement": "Blood uric acid", "setting": "[1]; one intragastric administration per day for 30 days, serum 3 hours after last administration", "result": "134.8 ± 19.9", "unit": "µmol/L"}, {"measurement": "XOD activity", "setting": "XOD", "result": "19.8 ± 2.2", "unit": "U/L"}]}]}
